# ChEMBL document CHEMBL5291721, “A preclinical secondary pharmacology resource illuminates target-adverse drug reaction associations of marketed drugs” (Nat Commun, 2023)
# Legend:
# Thromboxane A2 receptor = target: T1, Thromboxane A2 receptor (Homo sapiens, UniProt P21731)
# T1 sequence (P21731 whole entry): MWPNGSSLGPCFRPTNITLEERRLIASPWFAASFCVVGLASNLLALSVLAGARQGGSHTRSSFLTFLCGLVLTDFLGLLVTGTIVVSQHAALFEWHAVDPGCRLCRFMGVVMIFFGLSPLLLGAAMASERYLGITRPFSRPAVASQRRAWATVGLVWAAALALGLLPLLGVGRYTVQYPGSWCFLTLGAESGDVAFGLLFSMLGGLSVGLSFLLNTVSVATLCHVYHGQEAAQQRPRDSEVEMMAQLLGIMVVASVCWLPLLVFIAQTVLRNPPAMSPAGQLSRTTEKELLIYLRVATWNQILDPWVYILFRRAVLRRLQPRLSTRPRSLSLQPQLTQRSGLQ
# [1] = target: T2, Gamma-aminobutyric acid receptor subunit alpha-1 (Rattus norvegicus, UniProt P62813); assay type: functional
# [2] = target: Beta-2 adrenergic receptor (Homo sapiens, UniProt P07550); assay type: functional, cell-based
# Histamine H2 receptor = Histamine H2 receptor (Homo sapiens, UniProt P25021); assay type: functional, cell-based
# Endothelin-1 receptor = target: T3, Endothelin-1 receptor (Homo sapiens, UniProt P25101)
# T3 sequence (P25101 whole entry): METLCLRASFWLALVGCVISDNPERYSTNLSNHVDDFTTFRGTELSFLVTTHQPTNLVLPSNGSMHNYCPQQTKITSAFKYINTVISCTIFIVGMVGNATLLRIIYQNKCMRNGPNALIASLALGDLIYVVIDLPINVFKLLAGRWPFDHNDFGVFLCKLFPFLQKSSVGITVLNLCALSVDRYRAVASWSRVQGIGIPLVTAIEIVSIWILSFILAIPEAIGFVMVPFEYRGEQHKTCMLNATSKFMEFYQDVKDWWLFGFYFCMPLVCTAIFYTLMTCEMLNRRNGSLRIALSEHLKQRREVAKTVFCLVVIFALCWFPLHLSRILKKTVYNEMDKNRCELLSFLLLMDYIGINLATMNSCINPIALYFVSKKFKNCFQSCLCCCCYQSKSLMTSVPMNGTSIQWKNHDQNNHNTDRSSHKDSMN
# Cannabinoid receptor 1 = Cannabinoid receptor 1 (Homo sapiens, UniProt P21554); assay type: functional, cell-based
# [3] = target: T4, 5-hydroxytryptamine receptor 1A (Homo sapiens, UniProt P08908); assay type: functional, cell-based
# T4 sequence (P08908 whole entry): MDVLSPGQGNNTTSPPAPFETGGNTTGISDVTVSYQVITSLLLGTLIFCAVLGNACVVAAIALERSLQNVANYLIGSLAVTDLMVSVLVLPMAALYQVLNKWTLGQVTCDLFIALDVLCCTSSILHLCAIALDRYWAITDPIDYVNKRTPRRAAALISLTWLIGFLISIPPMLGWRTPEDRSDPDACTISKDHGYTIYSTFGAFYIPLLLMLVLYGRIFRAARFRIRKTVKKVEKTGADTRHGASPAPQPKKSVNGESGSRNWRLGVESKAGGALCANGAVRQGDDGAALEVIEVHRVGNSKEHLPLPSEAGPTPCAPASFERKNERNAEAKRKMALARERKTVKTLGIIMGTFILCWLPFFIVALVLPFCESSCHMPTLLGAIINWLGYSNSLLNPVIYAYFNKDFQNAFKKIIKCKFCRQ
# Mu-type opioid receptor = Mu-type opioid receptor (Homo sapiens, UniProt P35372)
# [4] = target: T5, Muscarinic acetylcholine receptor M2 (Homo sapiens, UniProt P08172); assay type: functional, cell-based
# T5 sequence (P08172 whole entry): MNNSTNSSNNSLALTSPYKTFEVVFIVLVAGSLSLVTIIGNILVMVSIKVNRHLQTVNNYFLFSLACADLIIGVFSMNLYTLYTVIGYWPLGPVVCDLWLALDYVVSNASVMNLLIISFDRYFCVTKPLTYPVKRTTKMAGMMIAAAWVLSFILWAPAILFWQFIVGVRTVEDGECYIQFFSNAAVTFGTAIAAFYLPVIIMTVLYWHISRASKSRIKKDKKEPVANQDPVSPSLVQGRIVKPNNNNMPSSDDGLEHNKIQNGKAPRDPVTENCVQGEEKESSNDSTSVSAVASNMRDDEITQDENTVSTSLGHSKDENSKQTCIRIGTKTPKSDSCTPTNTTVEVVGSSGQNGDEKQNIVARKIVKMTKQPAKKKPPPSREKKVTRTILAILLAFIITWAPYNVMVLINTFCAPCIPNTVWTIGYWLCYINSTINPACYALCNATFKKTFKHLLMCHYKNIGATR
# [5] = target: T2, Gamma-aminobutyric acid receptor subunit alpha-1
# Adenosine receptor A1 = target: T6, Adenosine receptor A1 (Homo sapiens, UniProt P30542)
# T6 sequence (P30542 whole entry): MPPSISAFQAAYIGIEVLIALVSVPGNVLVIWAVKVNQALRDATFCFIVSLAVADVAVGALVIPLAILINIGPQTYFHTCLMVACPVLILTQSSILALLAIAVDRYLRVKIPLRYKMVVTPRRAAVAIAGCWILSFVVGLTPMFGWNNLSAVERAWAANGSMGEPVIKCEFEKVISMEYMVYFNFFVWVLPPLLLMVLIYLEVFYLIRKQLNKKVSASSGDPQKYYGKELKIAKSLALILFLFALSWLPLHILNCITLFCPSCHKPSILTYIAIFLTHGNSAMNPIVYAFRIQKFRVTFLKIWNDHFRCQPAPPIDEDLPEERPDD
# Adenosine receptor A3 = target: T7, Adenosine receptor A3 (Homo sapiens, UniProt P0DMS8)
# T7 sequence (P0DMS8 whole entry): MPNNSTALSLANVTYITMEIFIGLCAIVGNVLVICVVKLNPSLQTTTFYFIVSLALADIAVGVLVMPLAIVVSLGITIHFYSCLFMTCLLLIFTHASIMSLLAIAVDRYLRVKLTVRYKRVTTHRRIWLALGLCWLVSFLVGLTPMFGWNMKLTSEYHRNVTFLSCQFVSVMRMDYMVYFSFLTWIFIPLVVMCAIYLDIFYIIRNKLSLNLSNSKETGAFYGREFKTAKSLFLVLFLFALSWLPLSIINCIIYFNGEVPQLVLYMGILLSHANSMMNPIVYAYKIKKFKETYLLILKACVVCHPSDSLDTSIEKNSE
# Note: assay procedure not described here.
# T2 sequence (P62813 whole entry): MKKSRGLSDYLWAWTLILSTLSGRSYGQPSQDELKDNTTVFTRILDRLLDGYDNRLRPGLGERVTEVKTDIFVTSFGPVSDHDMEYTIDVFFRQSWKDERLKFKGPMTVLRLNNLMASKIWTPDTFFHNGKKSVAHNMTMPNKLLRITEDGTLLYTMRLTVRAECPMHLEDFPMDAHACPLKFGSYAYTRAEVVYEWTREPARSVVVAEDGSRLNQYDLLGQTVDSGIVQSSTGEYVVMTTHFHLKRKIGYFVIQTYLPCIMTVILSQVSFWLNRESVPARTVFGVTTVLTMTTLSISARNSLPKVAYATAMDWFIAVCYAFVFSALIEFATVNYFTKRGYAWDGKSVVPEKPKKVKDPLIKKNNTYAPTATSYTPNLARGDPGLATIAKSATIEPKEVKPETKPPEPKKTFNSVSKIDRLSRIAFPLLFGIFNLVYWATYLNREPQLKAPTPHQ
# Beta-2 adrenergic receptor, sequence (P07550 whole entry): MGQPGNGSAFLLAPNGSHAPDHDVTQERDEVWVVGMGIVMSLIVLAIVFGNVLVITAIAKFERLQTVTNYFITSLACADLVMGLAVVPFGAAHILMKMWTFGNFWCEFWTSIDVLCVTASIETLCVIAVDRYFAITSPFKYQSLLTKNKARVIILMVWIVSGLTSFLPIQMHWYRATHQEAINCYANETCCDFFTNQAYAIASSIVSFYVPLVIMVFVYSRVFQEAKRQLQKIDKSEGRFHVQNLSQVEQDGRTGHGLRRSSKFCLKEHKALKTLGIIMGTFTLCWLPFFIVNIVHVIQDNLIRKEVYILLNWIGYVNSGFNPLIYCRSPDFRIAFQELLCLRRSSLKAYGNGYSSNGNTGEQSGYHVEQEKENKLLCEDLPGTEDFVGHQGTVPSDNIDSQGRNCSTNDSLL
# Cannabinoid receptor 1, sequence (P21554 whole entry): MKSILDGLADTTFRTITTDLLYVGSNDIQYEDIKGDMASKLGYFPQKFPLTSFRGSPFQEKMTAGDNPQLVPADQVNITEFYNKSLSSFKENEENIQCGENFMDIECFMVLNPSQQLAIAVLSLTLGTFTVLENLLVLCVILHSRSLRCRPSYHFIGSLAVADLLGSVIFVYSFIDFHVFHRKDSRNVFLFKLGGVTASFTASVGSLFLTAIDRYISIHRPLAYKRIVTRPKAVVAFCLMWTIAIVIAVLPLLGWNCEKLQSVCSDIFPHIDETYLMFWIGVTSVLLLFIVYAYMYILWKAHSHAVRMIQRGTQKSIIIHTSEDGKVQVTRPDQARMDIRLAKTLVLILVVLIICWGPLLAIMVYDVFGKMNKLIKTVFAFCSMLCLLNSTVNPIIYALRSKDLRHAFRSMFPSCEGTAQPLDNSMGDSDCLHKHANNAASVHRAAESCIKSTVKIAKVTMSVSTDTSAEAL
# Mu-type opioid receptor, sequence (P35372 whole entry): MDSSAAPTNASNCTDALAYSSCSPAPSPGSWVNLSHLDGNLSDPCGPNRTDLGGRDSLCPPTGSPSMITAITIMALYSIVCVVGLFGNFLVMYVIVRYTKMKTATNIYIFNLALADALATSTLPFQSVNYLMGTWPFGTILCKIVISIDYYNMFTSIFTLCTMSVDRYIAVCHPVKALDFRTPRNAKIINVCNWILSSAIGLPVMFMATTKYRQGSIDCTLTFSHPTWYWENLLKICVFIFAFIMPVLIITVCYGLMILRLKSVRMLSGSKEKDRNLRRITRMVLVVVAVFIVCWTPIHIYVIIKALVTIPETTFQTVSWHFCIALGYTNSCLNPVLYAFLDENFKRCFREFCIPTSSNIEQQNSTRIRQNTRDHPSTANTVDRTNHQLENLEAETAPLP
# Histamine H2 receptor, sequence (P25021 whole entry): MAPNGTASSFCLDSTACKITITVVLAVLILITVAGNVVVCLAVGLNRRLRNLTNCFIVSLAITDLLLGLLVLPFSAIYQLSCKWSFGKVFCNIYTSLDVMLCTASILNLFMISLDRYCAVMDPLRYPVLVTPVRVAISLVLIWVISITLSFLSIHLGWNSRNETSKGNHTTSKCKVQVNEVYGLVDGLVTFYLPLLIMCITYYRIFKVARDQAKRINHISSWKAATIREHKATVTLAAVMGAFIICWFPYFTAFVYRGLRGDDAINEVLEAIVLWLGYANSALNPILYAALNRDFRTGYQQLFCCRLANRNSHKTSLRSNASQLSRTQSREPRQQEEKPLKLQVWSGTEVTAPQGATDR
SMILES,AC50 (Thromboxane A2 receptor) [µM],AC50 [1] [µM],AC50 [2] [µM],AC50 (Histamine H2 receptor) [µM],AC50 (Endothelin-1 receptor) [µM],AC50 (Cannabinoid receptor 1) [µM],AC50 [3] [µM],AC50 (Mu-type opioid receptor) [µM],AC50 [4] [µM],AC50 [5] [µM],AC50 (Adenosine receptor A1) [µM],AC50 (Adenosine receptor A3) [µM]
CCCc1nc2c(C)cc(-c3nc4ccccc4n3C)cc2n1Cc1ccc(-c2ccccc2C(=O)O)cc1,18.1,> 30,> 30,> 10,> 30,> 30,> 30,10.8,5.16,> 30,> 30,18.3
CC(C)NC(=N)NC(=N)Nc1ccc(Cl)c(Cl)c1 [CHLORPROGUANIL],,> 30,> 30,> 30,,> 30,> 30,,,> 30,,
C[N+](C)(C)CCOP(=O)(O)OP(=O)([O-])OC[C@H]1O[C@@H](n2ccc(N)nc2=O)[C@H](O)[C@@H]1O [CITICOLINE],,> 30,> 30,> 30,,> 30,> 30,,> 30,> 30,,
O=C(O)Cc1ccccc1Oc1ccc(Cl)cc1Cl [FENCLOFENAC],> 30,> 10,> 30,> 10,> 30,> 30,> 10,> 30,> 10,> 30,> 30,> 30
Cc1ccc(C)c(OCCCC(C)(C)C(=O)O)c1 [GEMFIBROZIL],> 30,> 10,> 30,> 10,> 30,> 30,> 10,> 30,> 10,> 30,> 30,> 30
COc1ccccc1OC1(C)OC(=O)c2ccccc2O1 (configuration not stated) [GUAIMESAL],> 30,,,,> 30,,,,,> 30,> 30,> 30
COc1cc(C(C)=O)ccc1OCCCN1CCC(c2noc3cc(F)ccc23)CC1 [ILOPERIDONE],,12.9,> 30,,> 30,> 30,> 30,10,8.3,> 30,> 30,> 30
CC(CN1c2ccccc2Sc2ccccc21)N(C)C (configuration not stated) [PROMETHAZINE],> 30,> 10,> 30,> 10,> 30,> 30,> 10,,0.322,> 30,> 30,> 30
CC(C)C[C@H](NC(=O)[C@@H](O)[C@H](N)Cc1ccccc1)C(=O)O [UBENIMEX],> 30,> 30,> 30,> 30,,> 30,> 30,,> 30,> 30,,> 30
CC[C@]12CCCN3CCc4c(n(c5ccccc45)[C@@](O)(C(=O)OC)C1)[C@@H]32 [VINCAMINE],,,,,,,,,,> 30,,
O=C1Cc2cc(CCN3CCN(c4nsc5ccccc45)CC3)c(Cl)cc2N1 [ZIPRASIDONE],> 30,> 10,> 30,> 10,> 30,> 30,0.95,> 30,> 10,> 30,> 30,> 30
